Reference: ChEMBL document CHEMBL5126517, “Structure-Activity Relationship in the Leucettine Family of Kinase Inhibitors” (J Med Chem, 2022)

Columns and labels:
[1] = Neurotoxicity against mouse HT-22 cells assessed as cell survival treated for 24 hrs by MTS assay; assay type: toxicity, cell-based
[2] = target: Glycogen synthase kinase-3 (Sus scrofa, UniProt B2LUN4+I6LNT8); experiment: Inhibition of porcine brain GSK-3alpha/beta using YRRAAVPPSPSLSRHSSPHQpSEDEEE as substrate incubated for 30 mins in presence of ATP by scintillation counting method; assay type: tissue-based
[3] = target: Dual specificity protein kinase CLK2 (Mus musculus, UniProt O35491); experiment: Inhibition of mouse recombinant GST-fused CLK2 expressed in Escherichia coli using GRSRSRSRSRSR peptide as substrate incubated for 30 mins in presence of ATP by scintillation counting method
Sequence of Dual specificity protein kinase CLK2 (O35491 whole entry, the tested form may be a part): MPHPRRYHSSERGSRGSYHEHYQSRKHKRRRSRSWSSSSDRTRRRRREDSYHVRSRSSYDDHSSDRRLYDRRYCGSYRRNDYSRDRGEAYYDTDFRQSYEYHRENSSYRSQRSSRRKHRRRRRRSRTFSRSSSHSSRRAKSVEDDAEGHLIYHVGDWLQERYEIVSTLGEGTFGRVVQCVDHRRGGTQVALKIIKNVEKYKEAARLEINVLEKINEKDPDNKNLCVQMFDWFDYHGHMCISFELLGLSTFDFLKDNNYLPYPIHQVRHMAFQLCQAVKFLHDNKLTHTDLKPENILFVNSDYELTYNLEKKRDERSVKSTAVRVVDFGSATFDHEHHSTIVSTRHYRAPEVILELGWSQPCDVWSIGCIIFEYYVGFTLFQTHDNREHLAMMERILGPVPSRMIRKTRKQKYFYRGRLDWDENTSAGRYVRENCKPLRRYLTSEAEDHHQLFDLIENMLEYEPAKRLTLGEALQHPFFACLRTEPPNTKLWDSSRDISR

U2OS = experiment: Induction of PI3K/mTor-dependent autophagy in human U2OS cells assessed as number of LC3 foci per cell at 10 uM measured after 4 hrs; assay type: cell-based; conditions: filed as activator
[4] = target: Dual specificity protein kinase CLK3 (Mus musculus, UniProt O35492); experiment: Inhibition of GST-fused mouse recombinant CLK3 expressed in Escherichia coli using GRSRSRSRSRSR peptide as substrate incubated for 30 mins in presence of ATP by scintillation counting method
Sequence of Dual specificity protein kinase CLK3 (O35492 whole entry, the tested form may be a part): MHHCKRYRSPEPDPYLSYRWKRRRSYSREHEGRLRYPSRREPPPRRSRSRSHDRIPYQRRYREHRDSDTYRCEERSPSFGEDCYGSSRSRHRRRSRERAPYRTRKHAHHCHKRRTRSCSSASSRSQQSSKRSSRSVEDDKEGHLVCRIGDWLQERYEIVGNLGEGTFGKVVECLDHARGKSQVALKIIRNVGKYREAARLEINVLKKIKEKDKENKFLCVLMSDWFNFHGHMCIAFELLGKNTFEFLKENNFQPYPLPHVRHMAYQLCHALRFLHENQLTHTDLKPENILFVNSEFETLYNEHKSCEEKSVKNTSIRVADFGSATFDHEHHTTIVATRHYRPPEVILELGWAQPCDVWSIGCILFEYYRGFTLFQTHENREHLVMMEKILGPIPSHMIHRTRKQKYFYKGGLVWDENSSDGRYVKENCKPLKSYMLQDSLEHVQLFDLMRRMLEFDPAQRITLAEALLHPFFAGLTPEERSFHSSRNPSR

Casein kinase 2 = Casein kinase 2 (Homo sapiens, UniProt P67870+P68400+P19784+Q8NEV1); experiment: Inhibition of human recombinant CK2 using RRRDDDSDDD peptide as substrate incubated for 30 mins in presence of ATP by scintillation counting method; assay type: protein assay
[5] = target: Dual specificity tyrosine-phosphorylation-regulated kinase 1B (Homo sapiens, UniProt Q9Y463)
Sequence of Dual specificity tyrosine-phosphorylation-regulated kinase 1B (Q9Y463 whole entry, the tested form may be a part): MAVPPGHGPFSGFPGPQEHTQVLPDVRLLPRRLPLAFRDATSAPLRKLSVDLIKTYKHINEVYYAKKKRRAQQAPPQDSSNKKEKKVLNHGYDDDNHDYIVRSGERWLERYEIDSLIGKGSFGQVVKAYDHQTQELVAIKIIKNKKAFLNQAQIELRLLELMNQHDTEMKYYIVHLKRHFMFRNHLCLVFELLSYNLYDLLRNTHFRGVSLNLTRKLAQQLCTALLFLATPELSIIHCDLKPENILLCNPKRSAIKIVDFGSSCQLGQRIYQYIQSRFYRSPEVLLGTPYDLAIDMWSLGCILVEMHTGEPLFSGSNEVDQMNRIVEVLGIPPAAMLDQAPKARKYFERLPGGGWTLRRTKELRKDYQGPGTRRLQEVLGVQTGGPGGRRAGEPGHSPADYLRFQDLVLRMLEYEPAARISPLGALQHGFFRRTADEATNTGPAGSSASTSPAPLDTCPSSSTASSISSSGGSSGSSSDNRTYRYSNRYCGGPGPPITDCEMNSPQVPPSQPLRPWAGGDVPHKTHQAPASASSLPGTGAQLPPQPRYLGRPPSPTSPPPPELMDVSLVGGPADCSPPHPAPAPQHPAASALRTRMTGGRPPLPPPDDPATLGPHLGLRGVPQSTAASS

[6] = target: Dual specificity protein kinase CLK1 (Mus musculus, UniProt P22518); experiment: Inhibition of GST-fused mouse recombinant CLK1 expressed in Escherichia coli using GRSRSRSRSRSR peptide as substrate incubated for 30 mins in presence of ATP by scintillation counting method
Sequence of Dual specificity protein kinase CLK1 (P22518 whole entry, the tested form may be a part): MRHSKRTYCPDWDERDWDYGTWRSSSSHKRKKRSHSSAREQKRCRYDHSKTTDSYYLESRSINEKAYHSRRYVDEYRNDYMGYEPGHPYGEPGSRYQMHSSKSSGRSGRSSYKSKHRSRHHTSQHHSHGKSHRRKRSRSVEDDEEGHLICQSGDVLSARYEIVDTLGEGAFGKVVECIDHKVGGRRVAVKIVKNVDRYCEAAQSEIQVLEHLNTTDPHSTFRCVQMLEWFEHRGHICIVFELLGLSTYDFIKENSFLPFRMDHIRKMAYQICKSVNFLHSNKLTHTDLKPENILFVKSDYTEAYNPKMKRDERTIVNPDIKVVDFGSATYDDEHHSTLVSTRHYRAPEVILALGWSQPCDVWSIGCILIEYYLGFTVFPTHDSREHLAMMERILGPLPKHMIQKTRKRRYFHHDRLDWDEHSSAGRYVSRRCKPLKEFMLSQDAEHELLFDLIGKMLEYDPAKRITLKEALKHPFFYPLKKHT

Cannabinoid receptor 1 = Cannabinoid receptor 1 (Homo sapiens, UniProt P21554); experiment: Antagonist activity at CP-55940-activated CB1 receptor (unknown origin) at 10 uM by beta-arrestin assay relative to control; assay type: functional; design: scale not given: the % may be the effect or the level left
Sequence of Cannabinoid receptor 1 (P21554 whole entry): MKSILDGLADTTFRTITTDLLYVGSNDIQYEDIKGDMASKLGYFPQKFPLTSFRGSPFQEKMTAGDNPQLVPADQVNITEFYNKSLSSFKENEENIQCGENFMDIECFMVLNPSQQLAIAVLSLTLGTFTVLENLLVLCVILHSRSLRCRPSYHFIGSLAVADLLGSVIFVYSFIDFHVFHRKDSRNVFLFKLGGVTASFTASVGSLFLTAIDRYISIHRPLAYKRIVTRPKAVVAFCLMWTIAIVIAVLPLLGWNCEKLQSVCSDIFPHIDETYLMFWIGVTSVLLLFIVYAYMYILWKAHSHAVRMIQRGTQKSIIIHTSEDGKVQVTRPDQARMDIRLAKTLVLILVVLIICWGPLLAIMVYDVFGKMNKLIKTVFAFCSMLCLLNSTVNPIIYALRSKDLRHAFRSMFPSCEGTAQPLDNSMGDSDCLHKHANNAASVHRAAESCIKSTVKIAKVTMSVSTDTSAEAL

[7] = target: Serine/threonine-protein kinase pim-1 (Homo sapiens, UniProt P11309); experiment: Inhibition of human recombinant Pim1 expressed in Escherichia coli using histone H1 as substrate incubated for 30 mins in presence of ATP by scintillation counting method
Sequence of Serine/threonine-protein kinase pim-1 (P11309 whole entry, the tested form may be a part): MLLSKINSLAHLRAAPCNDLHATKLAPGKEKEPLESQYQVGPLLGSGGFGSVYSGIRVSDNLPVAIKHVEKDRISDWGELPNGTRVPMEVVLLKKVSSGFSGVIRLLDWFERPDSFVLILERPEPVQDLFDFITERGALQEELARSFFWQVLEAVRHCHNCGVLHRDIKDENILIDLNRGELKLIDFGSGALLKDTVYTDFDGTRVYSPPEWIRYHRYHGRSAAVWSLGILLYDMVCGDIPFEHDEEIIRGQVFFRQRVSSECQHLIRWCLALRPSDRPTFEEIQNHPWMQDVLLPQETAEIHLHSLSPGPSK

[8] = target: T1, Dual specificity tyrosine-phosphorylation-regulated kinase 2 (Homo sapiens, UniProt Q92630); experiment: Inhibition of GST-fused human recombinant DYRK2 expressed in Escherichia coli using GRSRSRSRSRSR peptide as substrate incubated for 30 mins in presence of ATP by scintillation counting method
T1 sequence (Q92630 whole entry): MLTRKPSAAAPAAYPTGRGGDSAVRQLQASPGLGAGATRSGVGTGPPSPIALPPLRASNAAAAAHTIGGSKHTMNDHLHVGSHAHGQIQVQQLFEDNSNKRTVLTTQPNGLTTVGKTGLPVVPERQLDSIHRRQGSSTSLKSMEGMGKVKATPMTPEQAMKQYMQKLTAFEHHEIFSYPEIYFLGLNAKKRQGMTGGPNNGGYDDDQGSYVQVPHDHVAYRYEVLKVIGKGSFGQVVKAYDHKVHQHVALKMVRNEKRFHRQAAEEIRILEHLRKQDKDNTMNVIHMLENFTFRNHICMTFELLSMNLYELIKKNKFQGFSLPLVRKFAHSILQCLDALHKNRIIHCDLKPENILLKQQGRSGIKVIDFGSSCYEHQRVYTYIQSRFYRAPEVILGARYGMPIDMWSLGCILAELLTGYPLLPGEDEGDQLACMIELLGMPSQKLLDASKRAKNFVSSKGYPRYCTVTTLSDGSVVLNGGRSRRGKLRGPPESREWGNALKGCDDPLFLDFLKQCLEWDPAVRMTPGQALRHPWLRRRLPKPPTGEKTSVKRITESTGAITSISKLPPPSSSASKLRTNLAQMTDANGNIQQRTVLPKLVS

HT-22 [9] = experiment: Neuroprotective activity against glutamate-induced cell death in mouse HT-22 cells treated for 24 hrs by MTS assay; assay type: functional, cell-based; conditions: HT-22, 24 h
[10] = target: Dual specificity protein kinase CLK4 (Mus musculus, UniProt O35493); experiment: Inhibition of GST-fused mouse recombinant CLK4 expressed in Escherichia coli using GRSRSRSRSRSR peptide as substrate incubated for 30 mins in presence of ATP by scintillation counting method
Sequence of Dual specificity protein kinase CLK4 (O35493 whole entry, the tested form may be a part): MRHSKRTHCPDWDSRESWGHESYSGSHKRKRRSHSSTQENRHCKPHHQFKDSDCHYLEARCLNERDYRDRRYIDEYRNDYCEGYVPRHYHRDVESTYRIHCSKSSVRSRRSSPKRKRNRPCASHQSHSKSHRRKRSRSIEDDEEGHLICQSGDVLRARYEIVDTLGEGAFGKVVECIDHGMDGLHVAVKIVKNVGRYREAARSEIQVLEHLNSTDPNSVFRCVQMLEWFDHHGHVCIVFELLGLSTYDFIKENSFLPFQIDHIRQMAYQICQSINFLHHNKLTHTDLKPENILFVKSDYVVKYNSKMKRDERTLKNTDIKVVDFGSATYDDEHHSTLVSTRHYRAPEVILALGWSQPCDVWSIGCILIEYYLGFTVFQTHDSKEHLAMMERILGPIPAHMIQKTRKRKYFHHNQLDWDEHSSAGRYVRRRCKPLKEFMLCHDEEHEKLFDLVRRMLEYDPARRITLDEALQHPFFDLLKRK

[11] = target: T2, Dual specificity tyrosine-phosphorylation-regulated kinase 3 (Homo sapiens, UniProt O43781); experiment: Inhibition of GST-fused human recombinant DYRK3 expressed in Escherichia coli using GRSRSRSRSRSR peptide as substrate incubated for 30 mins in presence of ATP by scintillation counting method
T2 sequence (O43781 whole entry): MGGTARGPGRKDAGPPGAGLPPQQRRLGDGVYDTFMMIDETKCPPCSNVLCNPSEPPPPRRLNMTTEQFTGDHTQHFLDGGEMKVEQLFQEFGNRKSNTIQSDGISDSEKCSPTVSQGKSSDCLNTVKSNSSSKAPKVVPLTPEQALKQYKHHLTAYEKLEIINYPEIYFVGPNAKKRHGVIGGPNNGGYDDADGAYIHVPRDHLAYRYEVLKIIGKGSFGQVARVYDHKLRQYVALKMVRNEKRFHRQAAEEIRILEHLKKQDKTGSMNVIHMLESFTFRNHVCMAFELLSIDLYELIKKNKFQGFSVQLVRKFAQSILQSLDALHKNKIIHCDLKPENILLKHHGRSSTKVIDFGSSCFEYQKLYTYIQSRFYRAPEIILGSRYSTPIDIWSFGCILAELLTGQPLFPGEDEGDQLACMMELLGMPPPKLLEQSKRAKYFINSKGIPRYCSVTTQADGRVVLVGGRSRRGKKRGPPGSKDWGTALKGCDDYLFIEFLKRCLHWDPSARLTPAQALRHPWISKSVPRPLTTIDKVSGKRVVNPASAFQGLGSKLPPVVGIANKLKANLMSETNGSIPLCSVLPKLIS

[12] = target: Dual specificity tyrosine-phosphorylation-regulated kinase 1A (Homo sapiens, UniProt Q13627); experiment: Inhibition of GST-fused human recombinant DYRK1A expressed in Escherichia coli using GRSRSRSRSRSR peptide as substrate incubated for 30 mins in presence of ATP by scintillation counting method
HT-22 [13] = experiment: Modulation of CLK1 pre-mRNA splicing in mouse HT-22 cells assessed as inclusion of CLK1 exon 4 by measuring change in threshold cycle at 10 uM measured after 4 hrs by real time PCR analysis; assay type: cell-based; conditions: filed as modulator
[14] = Neurotoxicity against mouse HT-22 cells assessed as cell survival at 20 uM treated for 24 hrs by MTS assay; assay type: toxicity, cell-based; conditions: ht-22, 24 h

| SMILES | IC50 at 24 h [1] | IC50 [2] | IC50 [3] | Activity (U2OS) | IC50 [4] | IC50 (Casein kinase 2) | IC50 [5] | IC50 [6] | Activity (Cannabinoid receptor 1; filed as antagonist) | IC50 [7] | IC50 [8] | EC50 (HT-22 [9]) | IC50 [10] | IC50 [11] | IC50 [12] | deltaCT (HT-22 [13]) | Activity (Cannabinoid receptor 1) | EC50 at 24 h [1] | Activity [14] |
| --- | --- | --- | --- | --- | --- | --- | --- | --- | --- | --- | --- | --- | --- | --- | --- | --- | --- | --- | --- |
| O=C1NC(Nc2ccccc2)=N/C1=C\c1ccc2c(c1)CCCO2 | > 20000 nM | > 10000 nM | 1800 nM | 4.8 | ≥ 10000 nM | 2200 nM | 360 nM | 120 nM | 94% | 1200 nM | 120 nM | 3500 nM | 140 nM | 420 nM | 120 nM | – | – | – | – |
| C/C(=C1/N=C(Nc2ccccc2)NC1=O)c1ccc2c(c1)OCO2 | > 20000 nM | – | > 10000 nM | 5.8 | > 10000 nM | – | > 10000 nM | ≥ 10000 nM | – | – | 1600 nM | – | 5900 nM | – | 8500 nM | 0.38 | -42.1% | – | – |
| O=C1NC(Nc2ccccc2)=NC1Cc1ccc2c(c1)OCO2 (stereo unspecified) | – | > 10000 nM | > 10000 nM | – | > 10000 nM | – | > 10000 nM | 6270 nM | – | – | > 10000 nM | – | 5600 nM | > 10000 nM | 5100 nM | – | – | > 20000 nM | – |
| O=C1NC(N2CCN(c3ccc(F)cc3)CC2)=N/C1=C\c1ccc2c(c1)OCCO2 | > 20000 nM | 8200 nM | 10000 nM | 8.1 | > 10000 nM | – | ≥ 10000 nM | 2100 nM | – | 9300 nM | 2200 nM | 14000 nM | 2300 nM | 2100 nM | 3100 nM | – | 16% | – | – |
| CN(C1=N/C(=C\c2ccc3c(c2)OCO3)C(=O)N1)c1ccccc1 | – | 6200 nM | 1200 nM | 4.7 | 2600 nM | 2100 nM | 680 nM | 310 nM | – | 2000 nM | 320 nM | > 20000 nM | 130 nM | 1800 nM | 380 nM | – | -9.1% | > 20000 nM | – |
| Cc1ccc(NC2=N/C(=C\c3ccc4c(c3)OCO4)C(=O)N2)cc1C | – | > 10000 nM | 2200 nM | 6.6 | > 10000 nM | > 10000 nM | 520 nM | 280 nM | 51.7% | > 10000 nM | 55 nM | 2700 nM | 160 nM | 1700 nM | 130 nM | – | – | > 20000 nM | – |
| CN1C(=O)/C(=C/c2ccc3c(c2)OCO3)N=C1Nc1ccccc1 | – | 750 nM | 500 nM | 7.9 | 1400 nM | > 10000 nM | 3200 nM | 140 nM | – | ≥ 10000 nM | 80 nM | 14000 nM | 110 nM | 870 nM | 93 nM | 4.42 | -5.5% | – | Non-Toxic |
